According to US10722488B2, “Hest G-18-0 and benzoyl peroxide compositions and methods for using the same” (RODAN & FIELDS, LLC, priority 2016, dated 2020):

Tests used:
[1] = cited from earlier work
[2] = Solubility of benzoyl peroxide, judged by eye (crystals disappear or stay at the bottom); assay type: physicochemical
Method: In embodiments described herein, the solubility of benzoyl peroxide is increased. The composition of benzoyl peroxide and Hest G-18-0 is transparent. Solubility is measured by visualizing whether the solid crystalline form of benzoyl peroxide disappears in the liquid or if it can be seen at the bottom of the solution in an undissolved crystalline form.

skin of the forearm = details: in vivo

Molecule: O=C(OOC(=O)c1ccccc1)c1ccccc1 [benzoyl peroxide, Benzoyl peroxide]
- solubility of benzoyl peroxide in water ([1]; at 25° C.): 9.1 ppm
- solubility in common cosmetic solvents ([1]; ethanol, glycerin, propylene glycol, or butylene glycol): practically insoluble
- solubility of benzoyl peroxide in Hest G-18-0 ([2]; 5% benzoyl peroxide in 100% Hest G-18-0, visual, FIG. 1 right beaker): completely dissolved
- solubility of benzoyl peroxide in ethoxydiglycol ([2]; 5% benzoyl peroxide in 100% ethoxydiglycol, visual, FIG. 1 left beaker): insolubility

Molecule: Glycereth-18 ethylhexanoate [Hest G-18-0]
- erythema of the skin (skin of the forearm): greatly reduced
